Laboratory results as given in PMC5225183, “Fingerprinting of neurotoxic compounds using a mouse embryonic stem cell dual luminescence reporter assay” (Archives of Toxicology, 2016).
Marks after values point to notes of the source that are not given here.

What was measured:
[1] = Table S1, three classes; ref per compound in the footnotes of Table S1; cited from earlier work
[2] = printed in column Concentration in humans; ref http://pubchem.ncbi.nlm.nih.gov/compound/16682730; cited from earlier work
[3] = tested on: Tubulin α1 (Tα1) promoter
Source text: (§1) Dual luciferase expressing CGR8-2Luc cells were obtained by transduction of mouse ESC CGR8 cells with the 2K7 EFS-Renilla Luciferase (RLuc)/Talpha1-Firefly Luciferase (FLuc) vector as previously described (Suter et al. [2006], [2009]); EFS corresponds to the short promoter of the eukaryotic translation elongation factor 1 alpha (EF1α), and Talpha1 to the Tubulin α1 (Tα1) promoter. Tα1 was selected as a promoter active in neurons, including early stages of neural differentiation. EF1α was originally selected to function as a constitutive promoter; however, it responds to cellular differentiation as well as to various chemicals, as previously shown (Kern et al. [2013]). Cells were cultured on 0.1 % gelatin-coated dishes in CGR8-2luc maintenance medium: BHK21 medium, supplemented with 10 % fetal calf serum, L-glutamine, non-essential amino acids, penicillin/streptomycin, and leukemia inhibitory factor (LIF). CGR8 cells were grown in a feeder-independent manner (embryonic pluripotent stem cells, ESCs) as described in protocol 1 (Fig. 1) before testing compounds of interest.
(§2) Fig. 1 Synopsis of experimental protocols. The impact of compounds on neural promoter activity (FLuc, Firefly Luciferase under the control of the Tα1 promoter), general promoter activity (RLuc, Renilla Luciferase under the control of the EF1α promoter), and amount of DNA (PI, propidium iodide fluorescence in cell homogenates) was investigated in undifferentiated mouse embryonic pluripotent stem cells (ESCs) and on ESC-derived neurons. Arrows indicate the time of measurement of the three parameters. a Protocol for testing compounds effects on ESCs. CGR8-2Luc cells were plated on gelatin-coated 96-well plates in maintenance medium (BHK21 medium containing 10 % FCS, L-glutamine, NEAA, P/S, and LIF). Twenty-four hours later, cells were exposed to compounds for forty-eight hours. b Protocol for testing compounds on ESC-derived neurons. CGR8-2Luc cells were co-cultured with MS5 cells to induce neural differentiation in DMEM medium containing 15 % KO-serum, NEAA, β-mercaptoethanol, and P/S. On day 5, cells were detached and seeded on polyornithine-coated plates in DMEM medium containing N2 supplement, bFGF, and P/S; compound exposure was from day 6 to day 8
(§3) To test compounds on ESC-derived neurons, neuronal differentiation was carried out as previously described (Suter et al. [2009]; Xu et al. [2014]). Briefly, CGR8-2Luc cells were seeded on irradiated bone marrow-derived stromal MS5 cells and cultivated for 4 days in DMEM medium containing 15 % Knock-out™ Serum Replacement, non-essential amino acids, beta-mercaptoethanol, and penicillin/streptomycin. At day 5, cells were then re-plated (3 × 10^5 cells/cm^2) on polyornithine-coated 96-well plates in N2 medium containing DMEM, N2 supplement, penicillin/streptomycin, and 10 ng/ml basic human fibroblast growth factor (bFGF) (Invitrogen). […] To assess toxicity of compounds on undifferentiated pluripotent stem cells (ESCs), CGR8-2Luc cells were plated at 45,000 cells/cm^2 on 0.1 % gelatin-coated dishes in BHK21 medium, supplemented with 10 % fetal calf serum, L-glutamine, non-essential amino acids, penicillin/streptomycin, and leukemia inhibitory factor (LIF). After 24 h, compounds were added and incubated for 48 h, before luciferase expression and PI fluorescence were analyzed. In all experiments, methylmercury was used as a positive control at a concentration of 5 µM.
(§4) Luciferase activities were measured with a Dual-Luciferase™ Reporter system kit. CGR8-2Luc ES cells were lysed in 96-well plates according to the manufacturer’s instructions. Luminescence measurements were performed on a Fluostar Optima reader. Luminescence counts were expressed as percentage of promoter activity normalized by comparison with the control wells treated by DMSO.

EF1α promoter = tested on: EF1α promoter
Source text: as §1, §2, §3, §4

CGR8-2Luc ESCs = tested on: CGR8-2Luc ESCs
Source text: as §2, §3
(§5) After measurement of luciferase activity, DNA quantity was determined by PI assay, as previously described (Xu et al. [2014]). PI was added to cell homogenates after the luciferase test, at a final concentration of 50 µg/ml and incubated for 2 h. After incubation, fluorescence intensity was measured on a Flexstation 3 microplate reader (Excitation: 544 nm ± 15 nm; Emission: 620 nm ± 15 nm). Results are expressed as percentage of control. Propidium iodide (PI) measures total DNA content as an approximation of the cell number. A decrease in PI fluorescence was interpreted as a decrease in cell number and therefore throughout the text referred to as cytotoxicity.
(§6) Lowest adverse effect level (LOAEL) was defined as the lowest tested concentrations that lead to a statistically significant decrease for a given read-out (FLuc, RLuc, and PI) compared to baseline. “Baseline” was not in all cases defined by untreated cells, but may also refer to, e.g., a state of increased activity due to low, non-toxic compound concentrations.

ESC-derived neurons = tested on: ESC-derived neurons
Source text: as §2, §3, §5, §6

[4] = tested on: ESCs and ESC-derived neurons; test: Dual luminescence reporter test system, all readouts in ESCs and ESC-derived neurons
Source text: as §2, with “neurons.” for “neurons. CGR8-2Luc cells were co-cultured with MS5 cells to induce neural differentiation in DMEM medium containing 15 % KO-serum, NEAA, β-mercaptoethanol, and P/S. On day 5, cells were detached and seeded on polyornithine-coated plates in DMEM medium containing N2 supplement, bFGF, and P/S; compound exposure was from day 6 to day 8”
as §3, with “At” for “To test compounds on ESC-derived neurons, neuronal differentiation was carried out as previously described (Suter et al. [2009]; Xu et al. [2014]). Briefly, CGR8-2Luc cells were seeded on irradiated bone marrow-derived stromal MS5 cells and cultivated for 4 days in DMEM medium containing 15 % Knock-out™ Serum Replacement, non-essential amino acids, beta-mercaptoethanol, and penicillin/streptomycin. At”
Luciferase activities were measured with a Dual-Luciferase™ Reporter system kit. CGR8-2Luc ES cells were lysed in 96-well plates according to the manufacturer’s instructions. Luminescence measurements were performed on a Fluostar Optima reader. Luminescence counts were expressed as percentage of promoter activity normalized by comparison with the control wells treated by DMSO. […] parameters were measured in homogenates of ESCs and in ESC-derived neurons: (1) FLuc, reflecting the activity of early neural promoter Tα1. FLuc increases during neuronal differentiation. Many neurotoxic compounds may affect FLuc expression, either through impact on neuronal differentiation, through changes of neuronal gene expression, or through killing of neurons.
as §5, with “PI” for “After measurement of luciferase activity, DNA quantity was determined by PI assay, as previously described (Xu et al. [2014]). PI”
To describe the shape of different concentration–response curves, arbitrary scores were assigned as follows: 0 for “no change,” 1 for “down-stroke,” 2 for “bimodal profile,” and 3 for “up-stroke” (Fig. S1). A curve was classified as “down-stroke” or “up-stroke” if the change in response values comparative to control was statistically significant (p value <0.05, one-way ANOVA with post hoc Dunnett) with an additional requirement of a 30 % decrease or increase of mean response value relative to controls, respectively. If the absolute change in mean response values was below 30 % the curve was classified as “no change.” A curve was classified as “bimodal” if first up-stroke and subsequently down-stroke was observed.

[5] = tested on: Tubulin α1 (Tα1) promoter; test: cells
Source text: as §1, §2, §3, §4

rats = details: rats, gestational days 6–17; ref Australian Therapeutic Goods Administration [2014]; cited from earlier work

Structure (SMILES)	class based on clinical evidence for neurotoxicity [1]	oral lethal dose [2]	LOAEL ESC Tα1 [3]	LOAEL ESC EF1α (EF1α promoter)	LOAEL Neurons EF1α (EF1α promoter)	LOAEL ESC DNA (CGR8-2Luc ESCs)	LOAEL Neurons DNA (ESC-derived neurons)	Number of non-cytotoxic changes [4]	LOAEL Neurons Tα1 [5]	oral dose inducing developmental toxicity (rats)
CC(=O)[O][Hg][c]1ccccc1 [Phenylmercuric acetate]	Possibly (developmental)	5–50 mg/kg (oral lethal dose)^i	0.5 µM	0.5 µM	0.5 µM	0.5 µM	0.5 µM	0	0.5 µM	–
CC(=O)O[C@H]1CC[C@@]2(C)C(=CC[C@@H]3[C@@H]2CC[C@]2(C)C(c4cccnc4)=CC[C@@H]32)C1 [abiraterone acetate]	–	–	–	–	–	–	–	–	–	≥ 10 mg/kg/day
